According to ChEMBL document CHEMBL3045189, “Ginsenoside Re downregulates ICAM-1 expression, inhibits polymorphonuclear infiltration, and ameliorates ischemia-reperfusion injury” (2010):
Active and inactive are the calls of the source. The calls are words filed in the database; no cut-off is given here.

Columns and labels:
Rattus norvegicus [1] = test: Downregulation of ICAM-1 expression in Rattus norvegicus Sprague-Dawley (rat) heart at 20 mg/kg, iv measured 10 min post LAD ligation by Western blot analysis relative to untreated control; assay type: functional, organism-based; set-up: dose 20 mg/kg
Rattus norvegicus [2] = test: (§1) Cardioprotective activity in Rattus norvegicus Sprague-Dawley (rat) ischemia-reperfusion injury model assessed as decrease in myeloperoxidase activation in myocardial tissue at 20 mg/kg, iv measured 10 min prior to reperfusion measured at 6 hr by spectrophotometric analysis relative to untreated control; assay type: functional, organism-based; set-up: dose 20 mg/kg; conditions: Myocardium
Rattus norvegicus [3] = test: (§2) Cardioprotective activity in Rattus norvegicus Sprague-Dawley (rat) ischemia-reperfusion injury model assessed as area at risk in myocardial tissue at 20 mg/kg, iv administered 10 min prior to ischemia-reperfusion establishment measured after 6 hr by Evans blue staining-based planimetric analysis (reference value: 49.8 +/- 3.7 %); assay type: functional, Myocardium
Rattus norvegicus [4] = test: as §1, with “polymorphonuclear leukocytes infiltration” for “myeloperoxidase activation”, “hematoxylin-eosin staining-based light microscopy” for “spectrophotometric analysis”; assay type: functional, organism-based; set-up: dose 20 mg/kg; conditions: Myocardium
Rattus norvegicus [5] = test: as §2, with “decrease” for “area at risk”, “infarct size” for “tissue”, “tetrazolium chloride” for “Evans blue”, “42.6” for “49.8”, “3.8” for “3.7”; assay type: functional, Myocardium; set-up: scale not given: the % may be the effect or the level left

**Q.** For `CC(C)=CCC[C@](C)(O[C@@H]1O[C@H](CO)[C@@H](O)[C@H](O)[C@H]1O)[C@H]1CC[C@]2(C)[C@@H]1[C@H](O)C[C@@H]1[C@@]3(C)CC[C@H](O)C(C)(C)[C@@H]3[C@@H](O[C@@H]3O[C@H](CO)[C@@H](O)[C@H](O)[C@H]3O[C@@H]3O[C@@H](C)[C@H](O)[C@@H](O)[C@H]3O)C[C@]12C` [GINSENOSIDE RE], which Activity (Rattus norvegicus [1]) is on record?
**A.** Active

**Q.** And the Activity (Rattus norvegicus [2])?
**A.** Active

**Q.** What about the Activity (Rattus norvegicus [3]) of the same compound?
**A.** 50.3%

**Q.** And the Activity (Rattus norvegicus [4])?
**A.** Active

**Q.** What about the Activity (Rattus norvegicus [5]) of the same compound?
**A.** 42.6%
